Measured values published in the supplement of paper PMC4862054.

Columns and labels:
Conditions in all cases: incubation time: 72 h
CAL-85-1 [1] = assay: normalised response (% of control), CellTiter-Glo; higher = more viable cells (100 = DMSO, 0 = benzethonium chloride kill control)
Outline: (§1)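 Each value is the plate-normalised signal at one concentration of the series. Breast cancer cell lines (20 µl suspension) were incubated 72 h in 384-well plates with compound at 5 concentrations in 10-fold steps over a compound-specific 10,000-fold range. CellTox Green and then CellTiter-Glo were read, and each plate was scaled to 0.1 % DMSO (100) and a positive kill control (0).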

HCC1143 = assay: as above
Outline: as §1

DU-4475 [2] = assay: as above
Outline: as §1

MDA-MB-436 = assay: as above
Outline: as §1

SK-BR-3 = assay: as above
Outline: as §1

MDA-MB-231 = assay: as above
Outline: as §1

HDQ-P1 [3] = assay: as above
Outline: as §1

BT-549 = assay: as above
Outline: as §1

Hs578T = assay: as above
Outline: as §1

CAL-148 [4] = assay: as above
Outline: as §1

MFM-223 = assay: as above
Outline: as §1

CAL-120 = assay: as above
Outline: as §1

MCF-10A = assay: as above
Outline: as §1

HCC1599 = assay: as above
Outline: as §1

HCC1937 = assay: as above
Outline: as §1

MDA-MB-453 [5] = assay: as above
Outline: as §1

CAL-51 [6] = assay: as above
Outline: as §1

MDA-MB-468 = assay: as above
Outline: as §1

BT-474 = assay: as above
Outline: as §1

CAL-85-1 [7] = assay: normalised viability (% of control), CellTiter-Blue; higher = more viable cells (about 100 = DMSO control)
Description: (§2)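 DSRT, CellTiter-Blue viability, 72 h incubation. Signal is normalised to DMSO and benzethonium chloride controls. Value is the normalised response at dose 9.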

DU-4475 [8] = assay: as above
Description: as §2

HDQ-P1 [9] = assay: as above
Description: as §2

CAL-148 [10] = assay: as above
Description: as §2

MDA-MB-453 [11] = assay: as above
Description: as §2

CAL-51 [12] = assay: as above
Description: as §2

| Structure (SMILES) | normalised response (CAL-85-1 [1]) [%] | normalised response (HCC1143) [%] | normalised response (DU-4475 [2]) [%] | normalised response (MDA-MB-436) [%] | normalised response (SK-BR-3) [%] | normalised response (MDA-MB-231) [%] | normalised response (HDQ-P1 [3]) [%] | normalised response (BT-549) [%] | normalised response (Hs578T) [%] | normalised response (CAL-148 [4]) [%] | normalised response (MFM-223) [%] | normalised response (CAL-120) [%] | normalised response (MCF-10A) [%] | normalised response (HCC1599) [%] | normalised response (HCC1937) [%] | normalised response (MDA-MB-453 [5]) [%] | normalised response (CAL-51 [6]) [%] | normalised response (MDA-MB-468) [%] | normalised response (BT-474) [%] | normalised viability (CAL-85-1 [7]) [%] | normalised viability (DU-4475 [8]) [%] | normalised viability (HDQ-P1 [9]) [%] | normalised viability (CAL-148 [10]) [%] | normalised viability (MDA-MB-453 [11]) [%] | normalised viability (CAL-51 [12]) [%] |
| --- | --- | --- | --- | --- | --- | --- | --- | --- | --- | --- | --- | --- | --- | --- | --- | --- | --- | --- | --- | --- | --- | --- | --- | --- | --- |
| Cn1c(CCCC(=O)O)nc2cc(N(CCCl)CCCl)ccc21 [Bendamustine] (10000 nM) | 107 | 111 | 101 | 105 | 105 | 109 | 113 | 101 | 103 | 110 | 106 | 108 | 114 | 96.6 | 108 | 120 | 132 | 116 | 99.6 | 92.9 | 78.6 | 113 | 92.4 | 121 | 99 |
| C=C(c1ccc(C(=O)O)cc1)c1cc2c(cc1C)C(C)(C)CCC2(C)C [Bexarotene] (10000 nM) | 101 | 101 | 100 | 95.9 | 72.1 | 105 | 106 | 99.9 | 80.8 | 79.9 | 95.1 | 112 | 82.8 | 59.5 | 96.6 | 110 | 98.3 | 110 | 82.1 | 95.1 | 116 | 103 | 79.8 | 86.7 | 90.2 |
| COc1cc2nccc(Oc3ccc(NC(=O)C4(C(=O)Nc5ccc(F)cc5)CC4)cc3)c2cc1OC [Cabozantinib] (1000 nM) | 107 | 95.3 | 102 | 101 | 107 | 79.2 | 94 | 104 | 89 | 104 | 64.6 | 95.2 | 94.6 | 102 | 95.4 | 95.4 | 111 | 87.2 | 83.8 | 45.1 | 108 | 88.5 | 78.7 | 37.1 | 86.5 |
| CN(C)/N=N/c1[nH]cnc1C(N)=O [Dacarbazine] (10000 nM) | 101 | 109 | 107 | 108 | 111 | 111 | 93.4 | 99.4 | 100 | 103 | 103 | 86 | 102 | 109 | 96.5 | 99.9 | 135 | 99.8 | 102 | 87.5 | 103 | 104 | 96.2 | 105 | 91.2 |
| Cc1ccc(-n2nc(C(C)(C)C)cc2NC(=O)Nc2ccc(OCCN3CCOCC3)c3ccccc23)cc1 [Doramapimod] (10000 nM) | 96.1 | 91.3 | 92.7 | 99.7 | 69.5 | 87.5 | 82.3 | 104 | 97.8 | 75.7 | 70.2 | 94.8 | 94.2 | 68.7 | 77.7 | 82.9 | 105 | 72.5 | 80.3 | 72.6 | 102 | 81 | 111 | 62.7 | 86.8 |
| C#Cc1cccc(Nc2ncnc3cc(OCCOC)c(OCCOC)cc23)c1 [Erlotinib] (10000 nM) | 40.2 | 79.7 | 101 | 79 | 48 | 83.4 | 66.1 | 75.4 | 85.8 | 69.7 | 78.1 | 79.8 | 30.9 | 92.7 | 76.4 | 90 | 77 | 59.1 | 75.9 | 47.7 | 84.5 | 68 | 24.7 | 55.1 | 50.9 |
| O=P1(NCCCl)OCCCN1CCCl (stereo not given) [Ifosfamide] (10000 nM) | 96.3 | 96.8 | 87.1 | 92.5 | 93.1 | 90.5 | 94 | 99.3 | 98.7 | 86.7 | 90 | 96.3 | 91.6 | 110 | 96.5 | 94.5 | 101 | 93.7 | 90.3 | 88.4 | 85.1 | 125 | 101 | 106 | 107 |
| CC1(C)NC(=O)N(c2ccc([N+](=O)[O-])c(C(F)(F)F)c2)C1=O [Nilutamide] (10000 nM) | 99.7 | 101 | 97.4 | 114 | 108 | 105 | 95.1 | 93.9 | 104 | 112 | 104 | 103 | 104 | 106 | 94.3 | 102 | 76.1 | 111 | 103 | 90.7 | 97.4 | 136 | 99.8 | 106 | 89.4 |
| Cc1ccc(C(=O)Nc2ccc(CN3CCN(C)CC3)c(C(F)(F)F)c2)cc1C#Cc1cnc2cccnn12 [Ponatinib] (1000 nM) | 58 | 86 | 77.4 | 64.7 | 68.3 | 15.5 | 36.5 | 36 | 53.9 | 85.4 | 43.7 | 41.2 | 34.4 | 108 | 60.6 | 77.3 | 47 | 69.2 | 30.6 | 50.1 | 50.2 | 21.9 | 77.5 | 38.4 | 42 |
| Cn1c(Nc2ccc(C(F)(F)F)cc2)nc2cc(Oc3ccnc(-c4ncc(C(F)(F)F)[nH]4)c3)ccc21 [RAF265] (1000 nM) | 40.7 | 94.2 | 71.8 | 67.7 | 92.1 | 83.5 | 47.2 | 68.7 | 78.2 | 99.9 | 48 | 67.2 | 86.6 | 73.7 | 63.7 | 95.8 | 52.1 | 50.8 | 79.6 | 47.2 | 42.3 | 34 | 64.1 | 89.2 | 48 |
| CNCc1ccc(-c2[nH]c3cc(F)cc4c3c2CCNC4=O)cc1 [Rucaparib] (10000 nM) | 93.7 | 94.5 | 74 | 85.7 | 67.7 | 75.7 | 85.3 | 81.8 | 93 | 71.2 | 91 | 97.8 | 82.8 | 82.2 | 79.7 | 117 | 93.3 | 68.9 | 80.9 | 45.8 | 46.2 | 106 | 37.5 | 32.1 | 40.5 |
| N[C@@H](CSC(c1ccccc1)(c1ccccc1)c1ccccc1)C(=O)O [S-trityl-L-cysteine] (40000 nM) | 101 | 92.8 | 92.3 | 95.3 | 99 | 91.1 | 102 | 106 | 89.6 | 100 | 92 | 101 | 104 | 103 | 93.5 | 86.2 | 123 | 104 | 89.6 | 87.5 | 92.2 | 65 | 114 | 83.2 | 87 |
| O=C1CCC(N2C(=O)c3ccccc3C2=O)C(=O)N1 (stereo not given) [Thalidomide] (10000 nM) | 93.5 | 94.7 | 93.3 | 96 | 106 | 94.2 | 98.2 | 96.7 | 96.8 | 92.4 | 100 | 100 | 98.8 | 101 | 98 | 97.2 | 84.7 | 91.6 | 94.6 | 104 | 97.5 | 105 | 106 | 102 | 90.6 |
| CN[C@@H]1C[C@H]2O[C@@](C)([C@@H]1OC)n1c3ccccc3c3c4c(c5c6ccccc6n2c5c31)C(=O)N[C@H]4O [UCN-01] (10000 nM) | 0.55 | 8.19 | 3.81 | 7.46 | 2.06 | 1.54 | 2.74 | 0.77 | 2.67 | 9.37 | 24.1 | 7.18 | 0.69 | 13.7 | 7.74 | 5.51 | 2.83 | 1.36 | 4.43 | 1.96 | 2.14 | 2.76 | 3.64 | 2.09 | 5.97 |
| Clc1ccc(Nc2nnc(Cc3ccncc3)c3ccccc23)cc1 [Vatalanib] (10000 nM) | 106 | 98.3 | 95.2 | 109 | 95.5 | 101 | 98.4 | 95.5 | 106 | 105 | 110 | 104 | 110 | 91.5 | 96 | 90.3 | 115 | 75.2 | 94.5 | 83.2 | 102 | 90.6 | 84.5 | 91.1 | 99.4 |
